{"source": "patent US20250179126A1", "about": "“A NOVEL PEPTIDE FROM A PHOTOSYNTHETIC BACERIUM DIRECTLY TARGETS MITOCHONDRIA TO TRIGGER APOPTOSIS IN ADVANCED PROSTATE CANCER CELLS” (priority 2022, published 2025)", "key": {"[1]": {"system": "normal prostate CRL11611 cells", "experiment": "Annexin-V apoptosis assay by flow cytometry, normal prostate CRL11611", "format": "cell-based, human", "conditions": "normal CRL11611, 48 hr; Ptxl 1 nM, p28 50 μM, aurA/aurB 0.5-50 μM", "experimental": "(§1) FIG. 7A-7D: Determination of apoptotic cell death. Prostate cancer cell lines (7A: LNCaP, 7B: DU145 and 7C: PC3) and normal prostate CRL11611 cells (7D) were exposed to the indicated agents for 48 hr and stained using apoptosis assay kits according to the manufacturer's instructions. The samples were analyzed by flow cytometry. Mean±SE (N=3).\n(§2) After 48 hr, annexin-V apoptosis assays (Thermo Fisher Scientific) were conducted to detect apoptotic cells. At least 10,000 cells in each case were analyzed by FACS (RRC, UIC)."}, "[2]": {"system": "DU145 cells", "experiment": "Annexin-V apoptosis assay by flow cytometry, DU145", "format": "cell-based, human", "conditions": "DU145, 48 hr; Ptxl 1 nM, p28 50 μM, aurA/aurB 0.5-50 μM", "experimental": "as §1, §2"}, "[3]": {"system": "PC3 prostate cancer cells", "experiment": "MTT cell viability assay, PC3 prostate cancer cells", "format": "cell-based, human", "experimental": "(§3) Cell lines and culture: Human cancer and noncancer (immortalized and nonimmortalized) cell lines were obtained from the American Type Culture Collection [prostate cancer (PC3, DU145 and LNCaP), normal prostate (CRL11611), breast cancer (MCF-7), ovarian cancer (SK-OV3 adenocarcinoma), lung cancer (A549)]. MDD2 breast cancer cells (p53 dominant-negative) were provided courtesy of Dr Andrei V. Gudkov, Roswell Park Cancer Institute. 20 All cell lines were cultured in MEM-E (Invitrogen) supplemented with 10% heat-inactivated fetal bovine serum (Atlanta Biological, Inc.), 100 units/mL penicillin, and 100 μg/mL streptomycin at 37° C. in 5% CO2."}, "[4]": {"system": "SKOV-3 ovarian cancer cells", "experiment": "MTT cell viability assay, SKOV-3 ovarian cancer cells", "format": "cell-based, human", "conditions": "24 hr", "description": "Cell viability was detected by MTT assays, and the control (PBS-treated) cells were considered 100% viable. Mean±SE (N=3). *P<0.05, **P<0.01, ***P<0.001.\nas §3\nCytotoxicity assay: The MTT assay was performed as we previously described (Cha et al., Cancer Research 2020, 80: 1615-1623)."}, "[5]": {"system": "spontaneous mammary tumors", "format": "in vivo, MMTV-PyMT transgenic mice", "description": "FIG. 26A-26H: Azurin-producing P. aeruginosa in human tumors. The azurin-encoding gene (azu) was detected in tumors from patients with breast cancer and melanoma. It was amplified by PCR with P. aeruginosa azu-specific primers and confirmed by DNA sequencing. […] In melanoma (26A), 27.6% (8 of 29) of primary tumors and 5.9% (2 of 34) of metastatic tumors were azu positive (P<0.05). In breast cancer (26B), 22.7% (5 of 22) of primary tumors and 14.3% (2 of 14) of metastatic tumors were azu positive (P>0.05). In addition, frozen tumor samples were processed for immunogold transmission electron microscopy (TEM) by using anti-P. aeruginosa and anti-azurin antibodies. […] Magnification: ×3000. […] Survival analysis of patients with azu-positive vs. azu-negative primary melanoma (26E, P<0.01) and primary breast cancer (26F, P<0.05) tumors. 26G—Hemizvgous MMTV-PyMT transgenic mice were injected with either PBS control or 2.5 mg/kg azurin (intraperitoneally, 3× weekly) for 2 months. The mean+SE values of tumor volume were calculated. h Tumor-free survival curve was generated with the PBS control and 2.5 mg/kg azurin groups of MMTV-PyMT transgenic mice. Median tumor-free survival of the PBS control and azurin-treatment groups was 67 and 72 days, respectively. P=0.015\nFIG. 29A-29C: Effect of azurin from P. aeruginosa in a transgenic animal model. 29A. Near-infrared red (NIR) dye-conjugated azurin or PBS was injected i.v. into transgenic mice that spontaneously develop mammary tumors. Twenty-four hours after azurin injection, mice were imaged with a photodynamic eye (PDE) system (left: photographic image, right: NIR fluorescence image at 800 nm). 29B. At the end of the study, the tumors were resected.\nEffect of azurin on transgenic mice: Hemizygous MMTV-PyMT (mouse mammary tumor virus-polyoma middle tumor-antigen) female mice were obtained from The Jackson Laboratory. […] In order to reach this level of azurin in mouse (25 g-body weight, 2 ml total blood volume), azurin does at 2.5 mg/kg was determined. Tumor volume and body weights were determined three times weekly. […]"}}, "note": "“Also recorded” adds a separate entry of the source."}
{"substance": "LVN GGD DVA AAV NTA AQN NAD ALF VPPP (LVNGGDDVAAAVNTAAQNNADALFVPPP) [aurB]", "values": [{"measurement": "apoptotic cell death", "setting": "[1]", "result": "less extent"}, {"measurement": "apoptotic cell death", "setting": "[2]", "result": "induced significant dose-dependent apoptosis"}, {"measurement": "effect on p53-inactive cancer cells (MTT)", "setting": "[3]; PC3 (p53-null), 0.1-100 μM, 24 hr", "result": "dose-dependent"}, {"measurement": "cytotoxic effect (MTT cell viability)", "setting": "[3]; PC3 (p53-null, AR−), 24-72 hr, paclitaxel 1 nM", "result": "significantly induced dose-dependent cytotoxic effects; also recorded: more sensitive than the normal prostate cell line"}, {"measurement": "inhibition rate", "setting": "[3]; PC3, 100 μM for 72 hr", "result": "~50", "unit": "%"}, {"measurement": "effect on p53-inactive cancer cells (MTT)", "setting": "[4]; SKOV3 (p53-null), 0.1-100 μM", "result": "dose-dependent"}, {"measurement": "anti-proliferative effect (MTT cell viability)", "setting": "[4]; SKOV-3, 5-100 μM", "result": "clear dose-dependent effects"}]}
{"substance": "azurin: 14 kDa periplasmic copper protein of 128 amino acids from P. aeruginosa; purified recombinant", "values": [{"measurement": "tumor-free survival", "setting": "[5]; 2.5 mg/kg azurin i.p. 3× weekly", "result": "significantly extended"}, {"measurement": "tumor growth (tumor volume)", "setting": "[5]; 2.5 mg/kg azurin i.p. 3× weekly, 2 months", "result": "significantly inhibited"}, {"measurement": "Median tumor-free survival", "setting": "[5]; 2.5 mg/kg azurin intraperitoneally, 3× weekly", "result": 72, "unit": "days"}]}
